Measurements: patent publication US20240165089A1, “METHOD FOR TREATING MYOPIA WITH VINPOCETINE” (EYE HOSPITAL, WENZHOU MEDICAL UNIVERSITY, priority 2021, published 2024)
Several values for one entry are separate records, joined by “and”; a condition that tells them apart may be missing. Equal entries are not always repeated.

Columns and labels:
[1] = system: form deprivation myopia model of guinea pigs; test: FDM guinea pig model, subconjunctival injection of AVA; assay type: in vivo; conditions: 1 week
Description: The modeling method for myopic individuals was the same as other embodiments of the present invention. […] No other active substances or excipients were added.

[2] = system: form deprivation myopia model of guinea pigs; test: FDM guinea pig model, subconjunctival injection, salmeterol/tiotropium/vinpocetine; conditions: 0.1% atropine, 2 weeks
Text: The form deprivation myopia model of guinea pigs described in the present invention was used to evaluate the efficacy. […] On the first day of the experiment, guinea pigs were subjected to form deprivation at 8 a.m. using a mask method, with the right eye covered (experimental eye) and the left eye uncovered (contralateral eye). Starting from the day of modeling, solvents or drugs for the corresponding groups were given to the experimental eyes at 9-10 a.m. every day by eyeball subconjunctival injection at an injection volume of 100 μL, once a day for 2 weeks. The refraction and axial parameters of the animals were detected before the start of the efficacy experiment and at the end of the experiment. All data collection and processing methods were the same as in other embodiments of the present invention. The statistical basis was the difference between the experimental eye and the contralateral eye of the same subject individual.

[3] = system: form deprivation myopia model of guinea pigs; test: FDM guinea pig model, eye drops (non-invasive administration); assay type: in vivo
Description: The purpose of this experiment was to evaluate the effect of vinpocetine on myopia through non-invasive administration. All tested drugs were formulated into eye drops. […] No other active substances or excipients were added to the above eye drops.

[4] = 0.1% atropine eye drops, 2 weeks
[5] = 0.1% atropine eye drops, 2 weeks (rounded and actual value)

## CC[C@@]12C=C(C(=O)O)n3c4c(c5ccccc53)CCN(CCC1)[C@H]42 [AVA, apovincaminic acid]
[1]; AVA 1 μM
  axial length difference between the eyes: 0.07±0.03 mm
  inhibition rate for the axial length: 36.4%
  inhibition rate for the vitreous chamber depth: 34.7%
  ocular abnormalities: no ocular abnormalities were observed
  refraction inhibition rate: 39.6%
  vitreous chamber depth difference between the eyes: 0.06±0.02 mm
[1]; FDM, AVA 1 μM subconjunctival 100 μL once a day
  refraction difference between the eyes: −2.65±1.18 D

## CN1[C@@H]2CC[C@H]1C[C@@H](OC(=O)C(CO)c1ccccc1)C2 (stereo partly shown) [atropine]
[1]; 0.1% atropine subconjunctival
  efficacy as positive control: showed its due efficacy
  pupil dilation: Pupil dilation occurred
[2]
  corneal curvature (RCC), anterior chamber depth (ACD) and lens thickness (LT): not affected by the drug
[2]; subconjunctival
  pupil dilation: pupil dilation occurred
[2]; FDM, subconjunctival
  refraction change towards negative, axial length elongation and vitreous chamber depth increase vs negative control: significantly inhibited
[3]; 0.01% atropine eye drops, same administration conditions
  therapeutic effect on the guinea pig myopia model: did not have any therapeutic effect
[3]; [4]
  inhibition rate for the vitreous chamber depth: 21.8%
  refraction inhibition rate: 40.0%
[3]; [5]
  axial length difference between the eyes: 0.11±0.05 mm and 0.1093±0.0530 mm
  vitreous chamber depth difference between the eyes: 0.11±0.05 mm and 0.1107±0.0502 mm
[3]; 0.1% atropine eye drops, during administration
  pupil dilation: Adverse reactions of pupil dilation occurred
[3]; FDM, 0.1% atropine eye drops 25 μL twice a day, 2 weeks
  refraction difference between the eyes (model-induced myopia): −3.93±1.75 D
